# Values of other authors in patent US8263660B2, “Stable hyperbaric composition comprising prilocaine HCl, use of said new composition for intrathecal anaethesia, and method for manufacturing said composition” (Sintetica S.A., priority 2006, dated 2012).
# Conditions: intrathecal application, literature reference (4)
structure (smiles),measurement,value
CCN(CC)CCOC(=O)c1ccc(N)cc1 [procaine],inadequacy rate,≤ 17%
